Experimental data: PubChem BioAssay AID458

Biological target: NAD-dependent protein deacylase sirtuin-5, mitochondrial (Homo sapiens) (UniProt Q9NXA8)
Assay: ligand binding to SIRT5 via aggregation temperature – biophysical, StarGazer light scattering (AID 458)
Conditions: SIRT5 thermal stabilisation, at 1 mM, protein 12 µM, stronger effect = higher value

Chain of NAD-dependent protein deacylase sirtuin-5, mitochondrial (Homo sapiens) (Q9NXA8 whole entry, looked up): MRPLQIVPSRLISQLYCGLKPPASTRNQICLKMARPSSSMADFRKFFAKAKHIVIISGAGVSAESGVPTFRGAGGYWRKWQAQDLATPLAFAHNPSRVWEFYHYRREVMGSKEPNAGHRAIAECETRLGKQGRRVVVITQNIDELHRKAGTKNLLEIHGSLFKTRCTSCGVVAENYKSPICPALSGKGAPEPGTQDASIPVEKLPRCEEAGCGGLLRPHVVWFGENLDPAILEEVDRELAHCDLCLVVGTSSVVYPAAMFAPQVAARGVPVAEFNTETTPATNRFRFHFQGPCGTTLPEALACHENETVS

Tagg shift [°C]	SMILES
27	Cc1ccc(C(=O)Nc2ccc(S(=O)(=O)O)c3cc(S(=O)(=O)O)cc(S(=O)(=O)O)c23)cc1NC(=O)c1cccc(NC(=O)Nc2cccc(C(=O)Nc3cc(C(=O)Nc4ccc(S(=O)(=O)O)c5cc(S(=O)(=O)O)cc(S(=O)(=O)O)c45)ccc3C)c2)c1
5.1	CC(/C=C/C(=O)NO)=C\[C@@H](C)C(=O)c1ccc(N(C)C)cc1
